# Results reported in article PMC11237694, “Novel pentafluorosulfanyl-containing triclocarban analogs selectively kill Gram-positive bacteria” (Microbiology Spectrum, 2024).
# What was measured:
# [1] = system: Staphylococcus aureus ATCC 25923; experiment: Planktonic susceptibility (MIC/MBC), 96-well broth microdilution; type: cell-based; conditions: Staphylococcus aureus, ATCC25923, S. aureus; for MIC: planktonic, overnight 37°C in MHB
# Method: (§1) All bacterial strains subjected to testing had been stored at −70°C prior to the experiment. The experiment commenced by streaking small amounts of the frozen bacterial samples onto Muller-Hinton agar (MHA) culture medium (BD Bacto, Oxoid, Basingstoke, UK Cat# X296B) and allowing for overnight incubation. Bacteria were re-cultured on MHA plates as required to confirm colony morphology and lack of contamination. Strains tested were P. aeruginosa ATCC 27853, E. coli ATCC 25922, Staphylococcus aureus ATCC 25923, MRSA ATCC 33591, S. epidermidis ATCC 12228, Klebsiella pneumoniae ATCC, P. mirabilis ATCC 35659, and 10 clinical isolates of MRSA from Foothills Hospital, Calgary, Canada. To prepare for susceptibility testing, a protocol modified from Lemire et al was used ([28]). MHB was swab-inoculated from MHA colonies and shake-incubated until turbid. Dilution of the broth with 0.9% saline was performed as necessary to match a 1.0 McFarland standard.
# (§2) MIC and MBC assessments were conducted on all bacterial strains using 96-well microtiter plates. To prepare the wells for bacteria, serial dilutions of the antibacterial agents were carried out along the rows of two microtiter plates. The antibacterials were 2-fold diluted with Mueller-Hinton broth (MHB) in each column, reaching a volume of 75 µL. The 1.0 McFarland standard was diluted 15-fold in MHB, and 75 µL of inoculum was added to the wells treated with antibacterials, resulting in a total volume of 150 µL. The microtiter plates were covered and then shake-incubated overnight at 150 rpm and 37°C. MIC was determined based on visible bacterial growth. In cases of antibacterial opacity or ambiguous results, streaking of well cultures on MHA, overnight incubation, and subsequent comparison with controls were performed. MBC was determined by transferring 3 µL of culture from all MIC microtiter plate wells to 147 µL of Mueller-Hinton broth in fresh plates. These plates were shake-incubated overnight at 150 rpm and 37°C, and bacterial growth was visually inspected.
# P. aeruginosa ATCC 27853 = experiment: as above; type: cell-based; conditions: Pseudomonas aeruginosa; for MBC: ATCC27853; for MIC: ATCC27853, planktonic, overnight 37°C in MHB
# Method: as §1, §2
# E. coli ATCC 25922 = experiment: as above; type: cell-based; conditions: Escherichia coli; for MBC: ATCC25922; for MIC: ATCC25922, planktonic, overnight 37°C in MHB
# Method: as §1, §2
# P. mirabilis ATCC 35659 = experiment: as above; type: cell-based; conditions: Proteus mirabilis; for MBC: ATCC35659; for MIC: ATCC35659, planktonic, overnight 37°C in MHB
# Method: as §1, §2
# [2] = system: Klebsiella pneumoniae ATCC; experiment: as above; type: cell-based; conditions: K. pneumonia; for MIC: planktonic, overnight 37°C in MHB
# Method: as §1, §2
# [3] = system: S. epidermidis ATCC 12228; experiment: as above; type: cell-based, Staphylococcus epidermidis; conditions: Staphylococcus epidermidis; for MBC: ATCC12228; for MIC: ATCC12228, planktonic, overnight 37°C in MHB
# Method: as §1, §2
# Gram-negative pathogens = system: Gram-negative pathogens; parameters: method as in PMID 12534815; conditions: cited from earlier work
# Gram-positive bacteria = system: Gram-positive bacteria; parameters: method as in PMID 12534815; conditions: cited from earlier work
# MRSA ATCC 33591 = experiment: Planktonic susceptibility (MIC/MBC), 96-well broth microdilution; type: cell-based, methicillin-resistant S. aureus; conditions: Staphylococcus aureus, MRSA reference strain
# Method: as §1
# as §2, with “In cases of antibacterial opacity or ambiguous results, streaking of well cultures on MHA, overnight incubation, and subsequent comparison with controls were performed.” left out
# [4] = system: 10 clinical isolates of MRSA from Foothills Hospital, Calgary; experiment: Planktonic susceptibility (MIC/MBC) of MRSA clinical isolates; type: cell-based, methicillin-resistant S. aureus; conditions: Staphylococcus aureus
# Method: as §1
# as §2, with “In cases of antibacterial opacity or ambiguous results, streaking of well cultures on MHA, overnight incubation, and subsequent comparison with controls were performed.” left out
MIC [1],MIC (P. aeruginosa ATCC 27853),MIC (E. coli ATCC 25922),MIC (P. mirabilis ATCC 35659),MIC [2],MIC [3],SMILES,MBC [1],MBC (P. aeruginosa ATCC 27853),MBC (E. coli ATCC 25922),MBC (P. mirabilis ATCC 35659),MBC [2],MBC [3],activity against Gram-negative pathogens (Gram-negative pathogens),antibacterial action against Gram-positive bacteria (Gram-positive bacteria),MBC ([4]; MRSA #1 clinical isolate),MIC ([4]; MRSA #1 clinical isolate),MBC ([4]; MRSA #2 clinical isolate),MIC ([4]; MRSA #2 clinical isolate),MBC ([4]; MRSA #3 clinical isolate),MIC ([4]; MRSA #3 clinical isolate),other results
80 µM,61 µM,2 µM,20 µM,10 µM,1200 µM,"O=C(O)c1cn(C2CC2)c2cc(N3CCNCC3)c(F)cc2c1=O [Cip, Ciprofloxacin, reference compound]",80 µM,2400 µM,2 µM,800 µM,500 µM,1200 µM,,,,,,,,,
,,,,,,"O=C(Nc1ccc(Cl)cc1)Nc1ccc(Cl)c(Cl)c1 [TCC, triclocarban]",,,,,,,no activity,antibacterial action,,,,,,,
,,,,,,"O=C(Nc1ccc(Cl)cc1)Nc1ccc(Cl)c(C(F)(F)F)c1 [cloflucarban, 3-trifluoromethyl-4,4′-dichlorocarbanilide]",,,,,,,no activity,antibacterial action,,,,,,,
1.2 µM,,,625 µM,> 5000 µM,8 µM,"O=C(Nc1ccc(Cl)c(C(F)(F)F)c1)Nc1cc(S(F)(F)(F)(F)F)ccc1Cl [EBP-37, 3-(4-chloro-3-(trifluoromethyl)phenyl)-1-(2-chloro-5-pentafluoro-λ^6-sulfanyl)urea]",4900 µM,,,625 µM,> 5000 µM,40 µM,,,1200 µM,10 µM,10 µM,< 2 µM,600 µM,80 µM,"MBC (MRSA ATCC 33591): 40 µM; MIC (MRSA ATCC 33591; planktonic, overnight 37°C in MHB): 8 µM; MBC ([4]; MRSA #4 clinical isolate): 10 µM; MIC ([4]; MRSA #4 clinical isolate): < 2 µM; MBC ([4]; MRSA #5 clinical isolate): 10 µM; MIC ([4]; MRSA #5 clinical isolate): 10 µM; MBC ([4]; MRSA #6 clinical isolate): < 2 µM; MIC ([4]; MRSA #6 clinical isolate): < 2 µM; MBC ([4]; MRSA #7 clinical isolate): 40 µM; MIC ([4]; MRSA #7 clinical isolate): 10 µM; MBC ([4]; MRSA #8 clinical isolate): 10 µM; MIC ([4]; MRSA #8 clinical isolate): < 2 µM; MBC ([4]; MRSA #9 clinical isolate): 10 µM; MIC ([4]; MRSA #9 clinical isolate): 5 µM; MBC ([4]; MRSA #10 clinical isolate): 10 µM; MIC ([4]; MRSA #10 clinical isolate): < 2 µM"
40 µM,12 µM,10 µM,1 µM,1 µM,300 µM,"CNC(C)C1CCC(N)C(OC2C(N)CC(N)C(OC3OCC(C)(O)C(NC)C3O)C2O)O1 (stereo not drawn) [Gen, Gentamicin, reference compound]",40 µM,1200 µM,10 µM,50 µM,50 µM,300 µM,,,1600 µM,100 µM,200 µM,50 µM,50 µM,50 µM,MBC ([4]; MRSA #4 clinical isolate): 50 µM; MIC ([4]; MRSA #4 clinical isolate): 50 µM; MBC ([4]; MRSA #5 clinical isolate): 6250 µM; MIC ([4]; MRSA #5 clinical isolate): 800 µM; MBC ([4]; MRSA #6 clinical isolate): 25000 µM; MIC ([4]; MRSA #6 clinical isolate): 3000 µM; MBC ([4]; MRSA #7 clinical isolate): 1600 µM; MIC ([4]; MRSA #7 clinical isolate): 50 µM; MBC ([4]; MRSA #8 clinical isolate): 50 µM; MIC ([4]; MRSA #8 clinical isolate): 50 µM; MBC ([4]; MRSA #9 clinical isolate): 50 µM; MIC ([4]; MRSA #9 clinical isolate): 50 µM; MBC ([4]; MRSA #10 clinical isolate): 50 µM; MIC ([4]; MRSA #10 clinical isolate): 50 µM
